Each structure is given as a SMILES string.

The test system of experiment [1] is carrageenin edema of the right hind paw of rats. Description: Carrageenin paw edema, systemic (subcutaneous, back) administration, edema inhibition ED40. The conditions noted are these: Rattus norvegicus, sc; s.c. into back, 60 min before 1% carrageenin; edema 3 hours after carrageenin. The format is in vivo, Wister male rats. The protocol: (§1) Using Wister male rats weighting 130-150 g, each group consisting of 6 rats, the local selectivity of the anti-inflammatory action was investigated by the systemic and local administration of the compounds of the present invention and comparative compounds.
In the evaluation of systemic administration, a test compound suspended into 1% gum arabic was subcutaneously injected into back of rats at doses of 0.01, 0.03, 0.1, and 0.3 mg/kg (5 ml/kg). After 60 minutes following the administration, 1% carrageenin (0.1 ml) was injecte into the plantar surface of the right hind paw. The paw volume was measured with a plethysmometer before and 3 hours after the carrageenin injection. The value was compared with the corresponding value of the control group, thus obtaining the edema inhibition rate, from which ED40 was determined.
(In general: In the carrageenan paw model, swelling and tenderness develop within hours.)

Experiment [2] relates to carrageenin edema of the paw of rats. Put plainly: Carrageenin paw edema, local (into paw) administration, edema inhibition ED40; local selectivity (A)/(B). The conditions noted are these: ratio of ED40 systemic to ED40 local. In kind it is in vivo, Wister male rats. The protocol: as §1
For the local administration test, the test compound suspended in 1% carrageenin was subcutaneously injected into a paw in the rats at doses of 0.01, 0.03, and 1.0 μg/paw (0.1 ml/paw). Three hours after the carrageenin injection, the volume of the edema was compared with the corresponding value of the control group, thus obtaining the edema inhibition rate, from which ED40 was determined.
The ratio of the ED40 values thus obtained was taken for the evaluation of the local selectivity. [formula]
The higher the value, the greater is the selectivity.

The subject of experiment [3] is human skin. Put plainly: Skin vessel constriction activity (local anti-inflammatory effect on human skin). The format is in vivo, human (healthy male subjects). The conditions noted are these: probit method. The protocol:
Skin vessel constriction effects on human skin of the present invention were investigated according to the following method. Dexamethasone 17,21-dipropionate which is known as a very strong anti-inflammatory agent for external application was used as a comparative compound.
Fifteen (15) healthy male subjects who were free from any skin disease anamnesis, such as eczema, dermatosis, or the like, received the test. Test compounds were diluted with 95% ethanol to make 6 sample solutions with different concentrations; highest concentration: 1×10^-2, lowest concentration: 1×10^-7. A strap to which acryl cells (diameter: 12 mm, thickness: 2 mm, height, 3 mm) were fixed was applied to the back of each subject. The test compound solution was then dropped with a pippet, 0.02 ml per drop, according to a key-code allocated at random. After drying by air, the strap was peeled off. The coated area was covered with a polyvinylidene chloride film, of which the periphery was fixed with a strap for the patch test. The period of time during which the covering was applied was 16 hours. The judgment was made according to the following standard four times at 1, 2, 5, and 8 hours after the removal of the film.
++: The coated skin was strongly pale.
+: The coated skin was distinctly pale.
±: The coated skin was slightly pale.
The results were analyzed by the probit method to obtain the ED50 value (≥+) at which the coated area was clearly pale. The results are shown in Table 2, in which the relative value for the compounds of the present invention determined by taking the ED50 value for dexamethasone 17,21-dipropionate as 100 are given in parentheses.

Setting [4] is: 1 hour after removal of film (16 hours covering).
[5] abbreviates: 2 hours after removal of film (16 hours covering).
Where [6] appears, read: 5 hours after removal of film (16 hours covering).
Where [7] appears, read: 8 hours after removal of film (16 hours covering).

Regarding `C[C@@H]1C[C@H]2[C@@H]3CCC4=CC(=O)C=C[C@]4(C)[C@@]3(F)[C@@H](O)C[C@]2(C)[C@@]1(OC(=O)C1CC1)C(=O)CO` [Compound No. 1, 9α-fluoro-11β,17,21-trihydroxy-16α-methylpregna-1,4-diene-3,20-dione 17-cyclopropanecarboxylate], in experiment [1], the ED40 turned out to be 0.28 mg/kg. The “Local Selectivity (A)/(B)” value in experiment [2] was 3.50. For the same molecule, the “ED50 value (≥ +) concentration” value in experiment [3] (setting [4]) is listed as 1.45 × 10^-4%; in experiment [3] (setting [5]), 1.19 × 10^-4%; in experiment [3] (setting [6]), 7.29 × 10^-4%; in experiment [3] (setting [7]) it was 1.24 × 10^-2%.
The molecule `C[C@@H]1C[C@H]2[C@@H]3CCC4=CC(=O)C=C[C@]4(C)[C@@]3(F)[C@@H](O)C[C@]2(C)[C@@]1(OC(=O)C1CC1)C(=O)COC(=O)C1CC1` [Compound No. 4, 9α-fluoro-11β,17,21-trihydroxy-16α-methylpregna-1,4-diene-3,20-dione 17,21-dicyclopropanecarboxylate] had an ED40 in experiment [1] of 0.83 mg/kg. In experiment [2], the “Local Selectivity (A)/(B)” value was determined as 3.95. In addition, the “ED50 value (≥ +) concentration” value was 5.10 × 10^-4% in experiment [3] (setting [4]), 3.17 × 10^-4% in experiment [3] (setting [5]), 2.00 × 10^-3% in experiment [3] (setting [6]) and 1.36 × 10^-2% in experiment [3] (setting [7]).
With `CCCC(=O)OCC(=O)[C@@]1(OC(=O)CCC)[C@H](C)C[C@H]2[C@@H]3CCC4=CC(=O)C=C[C@]4(C)[C@@]3(F)[C@@H](O)C[C@@]21C` [dexamethasone-17,21-dibutylate, reference compound], in experiment [1], the ED40 worked out at 0.34 mg/kg. Further, the “Local Selectivity (A)/(B)” value in experiment [2] is on record as 2.00.
With `CCC(=O)OCC(=O)[C@@]1(OC(=O)CC)[C@H](C)C[C@H]2[C@@H]3CCC4=CC(=O)C=C[C@]4(C)[C@@]3(F)[C@@H](O)C[C@@]21C` [dexamethasone-17,21-dipropionate, Dexamethasone 17,21-dipropionate, reference compound], the “ED50 value (≥ +) concentration” value is reported as 5.48 × 10^-4% in experiment [3] (setting [4]), 4.11 × 10^-4% in experiment [3] (setting [5]), 8.62 × 10^-3% in experiment [3] (setting [6]) and 3.19 × 10^-2% in experiment [3] (setting [7]).
For `CCCC(=O)O[C@]1(C(=O)CO)[C@H](C)C[C@H]2[C@@H]3CCC4=CC(=O)C=C[C@]4(C)[C@@]3(F)[C@@H](O)C[C@@]21C` [dexamethasone-17-butylate, reference compound], the ED40 in experiment [1] is 0.18 mg/kg. Also, the “Local Selectivity (A)/(B)” value in experiment [2] came out at 0.62.

These data come from US5063222A, “Antiinflammatory dexamethasone 17α-cyclopropanecarboxylates with reduced systemic activity” (SS Pharmaceutical Co., Ltd., priority 1989, dated 1991).
